# Measurements reported in ChEMBL document CHEMBL1201862, “PubChem BioAssay data set” (2004).
#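 Five concentrations, 48 hours, 96-well plates. The concentration for 50% growth inhibition is given as GI50.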 The source made the active and inactive calls. Cut-off read from the data, not from the text of the source: active = GI50 up to about 1.1 µM and inactive = higher.
# Assays:
# Assay in all cases: NCI anticancer screen, dose series, 48 h
# MDA-MB-231 = system: MDA-MB-231
# MDA-MB-435 = system: MDA-MB-435
# Hs-578T = system: Hs-578T
# EKVX = system: EKVX
# SF-539 = system: SF-539
# OVCAR-3 = system: OVCAR-3
# HCC 2998 = system: HCC 2998
# PC-3 = system: PC-3
# MOLT-4 = system: MOLT-4
# CAKI-1 = system: CAKI-1
# UO-31 = system: UO-31
# SN12C = system: SN12C
# HCT-116 = system: HCT-116
# UACC-257 = system: UACC-257
# SF-268 = system: SF-268
# SR = system: SR
# TK-10 = system: TK-10
# NCI-H226 = system: NCI-H226
# UACC-62 = system: UACC-62
# M14 = system: M14
# MCF7 = system: MCF7
# SNB-75 = system: SNB-75
# OVCAR-5 = system: OVCAR-5
# T47D = system: T47D
# K562 = system: K562
# SW-620 = system: SW-620
# NCI/ADR-RES = system: NCI/ADR-RES
# U-251 = system: U-251
# IGROV-1 = system: IGROV-1
# LOX IMVI = system: LOX IMVI
# NCI-H23 = system: NCI-H23
# A498 = system: A498
# SK-OV-3 = system: SK-OV-3
# SF-295 = system: SF-295
# RPMI-8226 = system: RPMI-8226
# HL-60 = system: HL-60
# RXF 393 = system: RXF 393
# SNB-19 = system: SNB-19
# SK-MEL-5 = system: SK-MEL-5
# SK-MEL-2 = system: SK-MEL-2
# KM12 = system: KM12
# 786-0 = system: 786-0
# NCI-H522 = system: NCI-H522
# ACHN = system: ACHN
# SK-MEL-28 = system: SK-MEL-28
# CCRF-CEM = system: CCRF-CEM
# MDA-N = system: MDA-N
# OVCAR-4 = system: OVCAR-4
# NCI-H460 = system: NCI-H460
# BT-549 = system: BT-549
# DU-145 = system: DU-145
# HCT-15 = system: HCT-15
# OVCAR-8 = system: OVCAR-8
# A549 = system: A549
# COLO 205 = system: COLO 205
# HOP-62 = system: HOP-62
# Malme-3M = system: Malme-3M
# HT-29 = system: HT-29
smiles,measurement,setting,value
CCn1c(SCC(=O)NNC(=S)Nc2ccc(Cl)cc2)nc2ccccc2c1=O,GI50,MDA-MB-231,> 100 µM (inactive)
same,GI50,MDA-MB-435,42.1 µM (inactive)
same,GI50,Hs-578T,> 100 µM (inactive)
same,GI50,EKVX,> 100 µM (inactive)
same,GI50,SF-539,58.1 µM (inactive)
same,GI50,OVCAR-3,82 µM (inactive)
same,GI50,HCC 2998,49 µM (inactive)
same,GI50,PC-3,27.2 µM (inactive)
same,GI50,MOLT-4,30.8 µM (inactive)
same,GI50,CAKI-1,43.9 µM (inactive)
same,GI50,UO-31,32 µM (inactive)
same,GI50,SN12C,47.5 µM (inactive)
same,GI50,HCT-116,39.8 µM (inactive)
same,GI50,UACC-257,53.2 µM (inactive)
same,GI50,SF-268,87.1 µM (inactive)
same,GI50,SR,43.9 µM (inactive)
same,GI50,TK-10,37.3 µM (inactive)
same,GI50,NCI-H226,> 100 µM (inactive)
same,GI50,UACC-62,35.2 µM (inactive)
same,GI50,M14,> 100 µM (inactive)
same,GI50,MCF7,56.2 µM (inactive)
same,GI50,SNB-75,> 100 µM (inactive)
same,GI50,OVCAR-5,> 100 µM (inactive)
same,GI50,T47D,35.8 µM (inactive)
same,GI50,K562,30.3 µM (inactive)
same,GI50,SW-620,95.1 µM (inactive)
same,GI50,NCI/ADR-RES,47.1 µM (inactive)
same,GI50,U-251,46.9 µM (inactive)
same,GI50,IGROV-1,> 100 µM (inactive)
same,GI50,LOX IMVI,30.1 µM (inactive)
same,GI50,NCI-H23,45.3 µM (inactive)
same,GI50,A498,46.9 µM (inactive)
same,GI50,SK-OV-3,53.8 µM (inactive)
same,GI50,SF-295,41.9 µM (inactive)
same,GI50,RPMI-8226,24.5 µM (inactive)
same,GI50,HL-60,29.9 µM (inactive)
same,GI50,RXF 393,26.2 µM (inactive)
same,GI50,SNB-19,> 100 µM (inactive)
same,GI50,SK-MEL-5,> 100 µM (inactive)
same,GI50,SK-MEL-2,74.8 µM (inactive)
same,GI50,KM12,83 µM (inactive)
same,GI50,786-0,45.1 µM (inactive)
same,GI50,NCI-H522,59 µM (inactive)
same,GI50,ACHN,47.9 µM (inactive)
same,GI50,SK-MEL-28,56.6 µM (inactive)
same,GI50,CCRF-CEM,33.1 µM (inactive)
same,GI50,MDA-N,55.3 µM (inactive)
same,GI50,OVCAR-4,40 µM (inactive)
same,GI50,NCI-H460,49.8 µM (inactive)
same,GI50,BT-549,31.8 µM (inactive)
same,GI50,DU-145,55.6 µM (inactive)
same,GI50,HCT-15,38.5 µM
same,GI50,OVCAR-8,43 µM (inactive)
same,GI50,A549,40.6 µM (inactive)
same,GI50,COLO 205,70 µM (inactive)
same,GI50,HOP-62,79.1 µM (inactive)
same,GI50,Malme-3M,42.2 µM (inactive)
CCCNC(=O)CCC(C)[C@H]1CCC2C3C(C[C@H](OC(C)=O)[C@@]21C)[C@@]1(C)CCC2(C[C@H]1C[C@H]3OC(C)=O)OOC1(CCCCC1)OO2 (some centres not stated),GI50,MDA-MB-231,1.94 µM (inactive)
same,GI50,MDA-MB-435,2.23 µM (inactive)
same,GI50,Hs-578T,7.33 µM (inactive)
same,GI50,EKVX,1.58 µM (inactive)
same,GI50,SF-539,3.66 µM (inactive)
same,GI50,OVCAR-3,1.87 µM (inactive)
same,GI50,HCC 2998,2.7 µM (inactive)
same,GI50,PC-3,1.69 µM (inactive)
same,GI50,MOLT-4,1.67 µM (inactive)
same,GI50,CAKI-1,0.367 µM (active)
same,GI50,UO-31,0.0893 µM (active)
same,GI50,SN12C,3.01 µM (inactive)
same,GI50,HCT-116,2.93 µM (inactive)
same,GI50,UACC-257,5.3 µM (inactive)
same,GI50,SF-268,2.02 µM (inactive)
same,GI50,SR,1.32 µM (inactive)
same,GI50,TK-10,1.95 µM (inactive)
same,GI50,NCI-H226,3.84 µM (inactive)
same,GI50,UACC-62,2.01 µM (inactive)
same,GI50,M14,5.02 µM (inactive)
same,GI50,MCF7,3.04 µM (inactive)
same,GI50,SNB-75,1.9 µM (inactive)
same,GI50,OVCAR-5,2.67 µM (inactive)
same,GI50,T47D,2.11 µM (inactive)
same,GI50,K562,4.05 µM (inactive)
same,GI50,SW-620,4.58 µM (inactive)
same,GI50,NCI/ADR-RES,2.39 µM (inactive)
same,GI50,U-251,1.85 µM (inactive)
same,GI50,IGROV-1,0.478 µM (active)
same,GI50,HT-29,3.96 µM (inactive)
same,GI50,LOX IMVI,1.84 µM (inactive)
same,GI50,NCI-H23,1.12 µM (inactive)
same,GI50,A498,33.7 µM (inactive)
same,GI50,SK-OV-3,24.9 µM (inactive)
same,GI50,SF-295,3.79 µM (inactive)
same,GI50,RPMI-8226,0.923 µM (active)
same,GI50,HL-60,1.51 µM (inactive)
same,GI50,RXF 393,3.24 µM (inactive)
same,GI50,SNB-19,7.18 µM (inactive)
same,GI50,SK-MEL-5,2.46 µM (inactive)
same,GI50,SK-MEL-2,2 µM (inactive)
same,GI50,KM12,1.44 µM (inactive)
same,GI50,786-0,2.31 µM (inactive)
same,GI50,NCI-H522,0.473 µM (active)
same,GI50,ACHN,1.24 µM (inactive)
same,GI50,SK-MEL-28,55.5 µM (inactive)
same,GI50,CCRF-CEM,1.73 µM (inactive)
same,GI50,MDA-N,3.05 µM (inactive)
same,GI50,OVCAR-4,1.74 µM (inactive)
same,GI50,NCI-H460,1.67 µM (inactive)
same,GI50,BT-549,2.55 µM (inactive)
same,GI50,DU-145,1.85 µM (inactive)
same,GI50,HCT-15,3.68 µM
same,GI50,OVCAR-8,1.42 µM (inactive)
same,GI50,A549,0.416 µM (active)
same,GI50,COLO 205,1.75 µM (inactive)
same,GI50,HOP-62,0.261 µM (active)
same,GI50,Malme-3M,2.13 µM (inactive)
C=C(C)[C@H]1CC23C(=O)C(C(=O)C(C)C)=C(O)[C@](C)(C[C@H]2C1(C)C)C3=O [LALIBINONE B],GI50,MDA-MB-231,15.6 µM (inactive)
same,GI50,MDA-MB-435,16.4 µM (inactive)
same,GI50,Hs-578T,23 µM (inactive)
same,GI50,EKVX,11 µM (inactive)
same,GI50,OVCAR-3,16.1 µM (inactive)
same,GI50,PC-3,12.6 µM (inactive)
same,GI50,MOLT-4,3.72 µM (inactive)
same,GI50,CAKI-1,22 µM (inactive)
same,GI50,UO-31,18.3 µM (inactive)
same,GI50,SN12C,17 µM (inactive)
same,GI50,UACC-257,24 µM (inactive)
same,GI50,SF-268,18.1 µM (inactive)
same,GI50,SR,14.5 µM (inactive)
same,GI50,TK-10,20.2 µM (inactive)
same,GI50,NCI-H226,16.2 µM (inactive)
same,GI50,UACC-62,16.3 µM (inactive)
same,GI50,M14,16.1 µM (inactive)
same,GI50,MCF7,15.3 µM (inactive)
same,GI50,OVCAR-5,14.5 µM (inactive)
same,GI50,T47D,30.9 µM (inactive)
same,GI50,K562,20.5 µM (inactive)
same,GI50,SW-620,17.8 µM (inactive)
same,GI50,NCI/ADR-RES,13.1 µM (inactive)
same,GI50,U-251,19.1 µM (inactive)
same,GI50,IGROV-1,12.5 µM (inactive)
same,GI50,HT-29,11.9 µM (inactive)
same,GI50,LOX IMVI,20.7 µM (inactive)
same,GI50,NCI-H23,18.9 µM (inactive)
same,GI50,SF-295,15.1 µM (inactive)
same,GI50,RPMI-8226,12.8 µM (inactive)
same,GI50,HL-60,15.2 µM (inactive)
same,GI50,RXF 393,12.9 µM (inactive)
same,GI50,SNB-19,25.8 µM (inactive)
same,GI50,SK-MEL-5,17.7 µM (inactive)
same,GI50,SK-MEL-2,15.9 µM (inactive)
same,GI50,KM12,19.6 µM (inactive)
same,GI50,786-0,15.6 µM (inactive)
same,GI50,NCI-H522,16.5 µM (inactive)
same,GI50,ACHN,16.6 µM (inactive)
same,GI50,SK-MEL-28,15 µM (inactive)
same,GI50,CCRF-CEM,8.3 µM (inactive)
same,GI50,MDA-N,18.9 µM (inactive)
same,GI50,OVCAR-4,12.6 µM (inactive)
same,GI50,NCI-H460,17 µM (inactive)
same,GI50,BT-549,17.5 µM (inactive)
same,GI50,DU-145,35.7 µM (inactive)
same,GI50,HCT-15,17.2 µM
same,GI50,OVCAR-8,17.9 µM (inactive)
same,GI50,A549,20.3 µM (inactive)
same,GI50,COLO 205,11.1 µM (inactive)
same,GI50,HOP-62,15.6 µM (inactive)
same,GI50,Malme-3M,14.3 µM (inactive)
